Source: patent US8921414B2, “Spiroketals” (EcoBiotics Ltd, priority 2005, dated 2014)
≈ marks a conversion by molar mass, not a printed value.

Assays:
Bacillus subtilis = experiment: ProTOX (Bs) antibacterial bioassay; format: cell-based; details: for Bs LD99: weight of chemical in last well with activity, real value may be lower
Text: ProTOX, (alternatively referred to herein as Bs) is an antibacterial bioassay, broadly applicable to most aerobic and anaerobic bacteria. The bioassay features a solid phase agar base into which the test compound has been incorporated together with a chromogen. As the bacteria multiply in the well, the chromogen is metabolised from blue in a two-step process to a colourless compound. Compounds with potent bactericidal activity inhibit bacterial metabolism of the chromogen while bacteriostatic compounds induce limited metabolism as indicated by an intermediate pink colour. ProTOX is broadly applicable to a range of gram-positive and gram-negative bacteria under aerobic and microaerophilic conditions. ProTOX assays were carried out using Bacillus subtilis. Briefly, in ProTOX, the bacteria (24 hour broth) were applied to the surface of an agar matrix containing the test sample and allowed to grow for 48 h. The assay was monitored at 24 and 48 hours and the active wells noted. Known antibiotics yield consistent colour transitions which are concentration and time dependent. These patterns provided an important guide to the early recognition of interesting characteristics.

prostate DU145 = experiment: Additional in vitro activity: antitumor activity, DU145; format: cell-based, human; details: concentration with activity
ovarian C180-13S = experiment: Additional in vitro activity: antitumor activity, C180-13S; format: cell-based, human; details: concentration with activity
[1] = test system: EBV-infected peripheral blood mononuclear cells (PBMCs); experiment: EBV transformation of donor PBMCs (anti-inflammatory screening); format: cell-based, human; details: 2 μg/mL, 28 days, visual and 3H-T cpm
Method: Three main assays were performed; transformation, regression and mixed lymphocyte reactions (MLRs). Reference is made to Moss et al., (D J, Rickinson A B, Pope J H: Long-term T-cell-mediated immunity to Epstein-Barr virus in man. III. Activation of cytotoxic T cells in virus-infected leukocyte cultures. Int J Cancer 1979, 23:618-625). Complete regression of virus-induced transformation in cultures of seropositive donor leukocytes
Both regression and MLR quantitative experimental results were obtained visually and by the addition of [methyl-^3H]thymidine (3H-T). 3H-T is a nucleoside analogue and is incorporated into the DNA of proliferating cells. If cells are proliferating, the counts/minute (cpm) is high; if cells are dead, the cpm is low.
EBV seronegative and seropositive donors' peripheral blood mononuclear cells (PBMCs) were infected with EBV. […]
The cells were then incubated for 28 days when results were determined visually and by the addition of 3H-T to obtain quantitative data.
The individual transformation summaries were determined by visual data and 3H-T cpm data from EBV seronegative_donors' peripheral blood mononuclear cells (PBMC). […] The 3H-T cpm cut-off values were determined for each individual assay by this control value, plus and minus a five (5)-fold difference. […]

[2] = test system: Neonatal foreskin fibroblasts (NFF); experiment: Cell growth inhibition (Table 22), NFF; format: cell-based; details: Homo sapiens, read-out: IC50 (drug dose which inhibits cell growth by 50%) NFF
Method: (§1) The isolated compounds were tested against a number of human and non-human cancer cell lines. The human tumor cell lines were: MCF-7, MDA-MB-231 and T47D, breast cancer; DU145 and PC3, prostate cancer; CI80-13S, ovarian cancer; MM96L, D04, SkMel5, MM418c5 melanoma; HT29, colon cancer; K562 and HL60, leukemia. Mouse cell lines were the B16 mouse melanoma and LK2 UV-induced squamous cell carcinoma (SCC). Neonatal foreskin fibroblasts (NFF) were used as normal control cells. Cells were cultured at 37° C. in 5% carbon dioxide/air, in RPMI 1640 medium containing 10% fetal calf serum.

CI80-13S ovarian cancer = experiment: Cell growth inhibition (Table 22), C180-13S; format: cell-based; details: Homo sapiens, read-out: IC50 (drug dose which inhibits cell growth by 50%) C180-13S
Method: as §1

K562 leukemia = experiment: Cell growth inhibition (Table 22), K562; format: cell-based; details: Homo sapiens, read-out: IC50 (drug dose which inhibits cell growth by 50%) K562
Method: as §1

melanoma MM96L = experiment: Additional in vitro activity: antitumor activity, MM96L; format: cell-based, human; details: concentration with activity
Haemonchus contortus = experiment: NemaTOX (Ne) anthelmintic larval development bioassay; details: for Ne LD99: weight of chemical in last well with activity, real value may be lower
Method: NemaTOX (alternatively referred to herein as Ne) is an anthelmintic bioassay, applicable to all parasitic nematodes with free-living life cycle stages, and can be used as a screen to detect activity and define the species spectrum of compounds against parasitic nematodes and examine the impact of pre-existing resistance to other anthelmintic classes on potency. Haemonchus contortus was utilised for this assay.
The effect on larval development is determined in this assay by the method described by Gill et al. (1995) Int. J. Parasitol. 25: 463-470. Briefly, in this assay nematode eggs were applied to the surface of an agar matrix containing the test sample and allowed to develop through to the L3, infective stage (6 days). At this time the stage of larval development reached and any unusual features (deformity, paralysis, toxicity) were noted by microscopic examination.

[3] = test system: NS1 murine myeloma cell line; experiment: CyTOX (Cy) cytotoxicity bioassay; format: cell-based; details: for Cy LD99: weight of chemical in last well with activity, real value may be lower
Text: CyTOX (alternatively referred to herein as Cy) is a microtitre plate bioassay use to identify potential antitumor actives. CyTOX is a chromogenic bioassay with broad application to a wide range of tumor and non-tumor cell lines. […] CyTOX features a liquid media into which the test compound has been incorporated together with a novel chromogen. As the cells grow and divide the chromogen is metabolised from purple in a single step process to a colourless metabolite. CyTOX is routinely undertaken using NS1 murine myeloma cell line as a guide to mammalian cell toxicity. Briefly, in CyTOX the cells were applied to the media containing the test chemical and allowed to grow for 72 hours. The assay was monitored at 24, 48 and 72 hours and the active wells identified.

[4] = test system: normal human fibroblasts (NFF); experiment: Additional in vitro activity: cytotoxic activity, NFF; format: cell-based; details: concentration with activity
melanoma MM418c5 = experiment: Additional in vitro activity: antitumor activity, MM418c5; format: cell-based, human; details: concentration with activity

Structure (SMILES) | antitumor activity against prostate DU145 at (prostate DU145) [µg/mL] | antitumor activity against ovarian C180-13S at (ovarian C180-13S) [µg/mL] | inhibition of transformation [1] | IC50 [2] [µg/mL] | IC50 (CI80-13S ovarian cancer) [µg/mL] | IC50 (K562 leukemia) [µg/mL] | antitumor activity against melanoma MM96L at (melanoma MM96L) [µg/mL] | cytotoxic activity against normal human fibroblasts (NFF) at [4] [µg/mL] | antitumor activity against melanoma MM418c5 at (melanoma MM418c5) [µg/mL] | further results
CC/C=C/CCCCCCCCCCCC(O)CC1CC(O)CC2(CC3OC(=O)C=CC3O2)O1 (stereo not drawn) [EBI-24] | 10 | 3 | strong inhibition | 0.8 (≈ 1.67 µM) | 0.75 (≈ 1.57 µM) | 0.6 (≈ 1.25 µM) | 3 | 10 | 10 | Bs LD99 (Bacillus subtilis): 13 µg/mL; Ne LD99 (Haemonchus contortus; listed as EB116.LA3.31-36/40): 100 µg/mL; Ne LD99 (Haemonchus contortus; listed as EB116.LA3.60-47/49): 50 µg/mL; Cy LD99 [3]: 0.78 µg/mL
CCCCCCCCCCCCCC(O)CC1CC(O)CC2(CC3OC(=O)C=CC3O2)O1 (stereo not drawn) [EBI-23] | 3 | 1 | strong inhibition | 2 (≈ 4.42 µM) | 0.2 (≈ 0.442 µM) | 1.7 (≈ 3.76 µM) | 1 | 30 | 1 | Bs Titre (Bacillus subtilis): 16; Bs LD99 (Bacillus subtilis; listed as EB77.LA4.92-100): 3.9 µg/mL; Bs LD99 (Bacillus subtilis; listed as EB116.LA3.31-27/32): 3.1 µg/mL; Bs LD99 (Bacillus subtilis; listed as EB116.LA3.60-40/42): 6.3 µg/mL; Ne Titre (Haemonchus contortus): 1; Ne LD99 (Haemonchus contortus; listed as EB77.LA4.92-100): 63 µg/mL; Ne LD99 (Haemonchus contortus; listed as EB116.LA3.31-27/32): 100 µg/mL; Cy Titre [3]: 256; Cy LD99 ([3]; listed as EB77.LA4.92-100): 0.24 µg/mL; Cy LD99 ([3]; listed as EB116.LA3.31-27/32): 0.78 µg/mL; Cy LD99 ([3]; listed as EB116.LA3.60-40/42): 0.78 µg/mL
